Laboratory results taken from PubChem BioAssay AID2060895 (Molecular Pharmacology Branch, DTP, NCI, 2025).

Tested on: PDC 899932-113-R3-J6 complex spheroid viability
Test: Anticancer human tumor 899932-113-R3-J6-PDC patient-derived melanoma cell line growth inhibition [RAS]
Details: for IC50: curve of first compound; for viability, T/C: stronger effect = lower value
Procedure, shortened: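 Tumour cells grown as complex spheroids with HUVEC endothelial cells and mesenchymal stem cells, treated with RAS pathway inhibitor combinations. Each agent spans half-log steps from near clinical Cmax, or 10 microM where Cmax is unknown.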

[1] = second compound 0.000949 µM, first compound 0.0316 µM
[2] = second compound 0.000949 µM, first compound 0.1 µM
[3] = second compound 0.000949 µM, first compound 0.316 µM
[4] = second compound 0.000949 µM, first compound 1 µM
[5] = second compound 0.000949 µM, first compound 3.16 µM
[6] = second compound 0.000949 µM, first compound 10 µM
[7] = second compound 0.003 µM, first compound 0.0316 µM
[8] = second compound 0.003 µM, first compound 0.1 µM
[9] = second compound 0.003 µM, first compound 0.316 µM
[10] = second compound 0.003 µM, first compound 1 µM
[11] = second compound 0.003 µM, first compound 3.16 µM
[12] = second compound 0.003 µM, first compound 10 µM
[13] = second compound 0.00949 µM, first compound 0.0316 µM
[14] = second compound 0.00949 µM, first compound 0.1 µM
[15] = second compound 0.00949 µM, first compound 0.316 µM
[16] = second compound 0.00949 µM, first compound 1 µM
[17] = second compound 0.00949 µM, first compound 3.16 µM
[18] = second compound 0.00949 µM, first compound 10 µM
[19] = second compound 0.03 µM, first compound 0.0316 µM
[20] = second compound 0.03 µM, first compound 0.1 µM
[21] = second compound 0.03 µM, first compound 0.316 µM
[22] = second compound 0.03 µM, first compound 1 µM
[23] = second compound 0.03 µM, first compound 3.16 µM
[24] = second compound 0.03 µM, first compound 10 µM
[25] = second compound 0.0949 µM, first compound 0.0316 µM
[26] = second compound 0.0949 µM, first compound 0.1 µM
[27] = second compound 0.0949 µM, first compound 0.316 µM
[28] = second compound 0.0949 µM, first compound 1 µM
[29] = second compound 0.0949 µM, first compound 3.16 µM
[30] = second compound 0.0949 µM, first compound 10 µM
[31] = second compound 0.3 µM, first compound 0.0316 µM
[32] = second compound 0.3 µM, first compound 0.1 µM
[33] = second compound 0.3 µM, first compound 0.316 µM
[34] = second compound 0.3 µM, first compound 1 µM
[35] = second compound 0.3 µM, first compound 3.16 µM
[36] = second compound 0.3 µM, first compound 10 µM
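Throughout, for viability, T/C: spheroids exposed to agents for seven days before readout; 100% = DMSO vehicle control wells.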

Structure (SMILES): CC(Nc1ccc2c(c1)OCCn1cc(N3C(=O)OCC3C(F)F)nc1-2)C(N)=O (stereo unspecified) + CCn1c(-c2cc(N3CCN(C)CC3)cnc2C(C)OC)c2c3cc(ccc31)-c1csc(n1)CC(NC(=O)C1CC1C)C(=O)N1CCCC(N1)C(=O)OCC(C)(C)C2
- IC50 (second compound 0.000949 µM): 0.129 µM
- IC50 (second compound 0.003 µM): < 0.0316 µM
- IC50 (second compound 0.00949 µM): < 0.0316 µM
- IC50 (second compound 0.03 µM): < 0.0316 µM
- IC50 (second compound 0.0949 µM): < 0.0316 µM
- IC50 (second compound 0.3 µM): < 0.0316 µM
- viability, T/C [1]: 64.5%
- viability, T/C [2]: 49.2%
- viability, T/C [3]: 39.7%
- viability, T/C [4]: 38.6%
- viability, T/C [5]: 29.7%
- viability, T/C [6]: 19.4%
- viability, T/C [7]: 26.1%
- viability, T/C [8]: 19.6%
- viability, T/C [9]: 15.7%
- viability, T/C [10]: 11.4%
- viability, T/C [11]: 9.07%
- viability, T/C [12]: 7.98%
- viability, T/C [13]: 2.72%
- viability, T/C [14]: 1.99%
- viability, T/C [15]: 1.32%
- viability, T/C [16]: 1.55%
- viability, T/C [17]: 0.87%
- viability, T/C [18]: 0.68%
- viability, T/C [19]: 2.18%
- viability, T/C [20]: 1.47%
- viability, T/C [21]: 0.93%
- viability, T/C [22]: 0.68%
- viability, T/C [23]: 0.45%
- viability, T/C [24]: 0.32%
- viability, T/C [25]: 1.46%
- viability, T/C [26]: 1.18%
- viability, T/C [27]: 0.72%
- viability, T/C [28]: 0.45%
- viability, T/C [29]: 0.31%
- viability, T/C [30]: 0.62%
- viability, T/C [31]: 1.36%
- viability, T/C [32]: 0.73%
- viability, T/C [33]: 0.51%
- viability, T/C [34]: 0.35%
- viability, T/C [35]: 0.22%
- viability, T/C [36]: 0.52%

Structure (SMILES): NC1c2ccccc2OC12CCN(c1cnc3c(N4CCCc5ncccc54)n[nH]c3n1)CC2 (stereo unspecified) + CCn1c(-c2cc(N3CCN(C)CC3)cnc2C(C)OC)c2c3cc(ccc31)-c1csc(n1)CC(NC(=O)C1CC1C)C(=O)N1CCCC(N1)C(=O)OCC(C)(C)C2
- IC50 (second compound 0.000949 µM): > 10 µM
- IC50 (second compound 0.003 µM): < 0.0316 µM
- IC50 (second compound 0.00949 µM): < 0.0316 µM
- IC50 (second compound 0.03 µM): < 0.0316 µM
- IC50 (second compound 0.0949 µM): < 0.0316 µM
- IC50 (second compound 0.3 µM): < 0.0316 µM
- viability, T/C [1]: 72.7%
- viability, T/C [2]: 64.5%
- viability, T/C [3]: 79.9%
- viability, T/C [4]: 73.4%
- viability, T/C [5]: 81%
- viability, T/C [6]: 70.2%
- viability, T/C [7]: 31.8%
- viability, T/C [8]: 27.1%
- viability, T/C [9]: 34.3%
- viability, T/C [10]: 38%
- viability, T/C [11]: 38.2%
- viability, T/C [12]: 12.4%
- viability, T/C [13]: 2.82%
- viability, T/C [14]: 2.7%
- viability, T/C [15]: 2%
- viability, T/C [16]: 2.89%
- viability, T/C [17]: 3.55%
- viability, T/C [18]: 4.09%
- viability, T/C [19]: 2.17%
- viability, T/C [20]: 1.67%
- viability, T/C [21]: 1.01%
- viability, T/C [22]: 0.93%
- viability, T/C [23]: 0.99%
- viability, T/C [24]: 2.33%
- viability, T/C [25]: 1.84%
- viability, T/C [26]: 1.61%
- viability, T/C [27]: 0.9%
- viability, T/C [28]: 0.51%
- viability, T/C [29]: 0.3%
- viability, T/C [30]: 1.08%
- viability, T/C [31]: 1.87%
- viability, T/C [32]: 2.01%
- viability, T/C [33]: 1.11%
- viability, T/C [34]: 0.31%
- viability, T/C [35]: 0.4%
- viability, T/C [36]: 0.35%

Structure (SMILES): CC(C)NCC(C(=O)N1CCN(c2ncnc3c2C(C)CC3O)CC1)c1ccc(Cl)cc1 (stereo unspecified) + C#Cc1c(F)ccc2cc(O)cc(-c3ncc4c(N5CC6CCC(C5)N6)nc(OCC56CCCN5CC(F)C6)nc4c3F)c12
- IC50 (second compound 0.0316 µM): 5.47 µM
- IC50 (second compound 0.1 µM): 5.82 µM
- IC50 (second compound 0.316 µM): 7.53 µM
- IC50 (second compound 1 µM): 7.94 µM
- IC50 (second compound 3.16 µM): 8.55 µM
- IC50 (second compound 10 µM): 6.45 µM
- viability, T/C (second compound 0.0316 µM, first compound 0.0316 µM): 99.5%
- viability, T/C (second compound 0.0316 µM, first compound 0.1 µM): 113%
- viability, T/C (second compound 0.0316 µM, first compound 0.316 µM): 103%
- viability, T/C (second compound 0.0316 µM, first compound 1 µM): 76.9%
- viability, T/C (second compound 0.0316 µM, first compound 3.16 µM): 67.4%
- viability, T/C (second compound 0.0316 µM, first compound 10 µM): 34.8%
- viability, T/C (second compound 0.1 µM, first compound 0.0316 µM): 108%
- viability, T/C (second compound 0.1 µM, first compound 0.1 µM): 109%
- viability, T/C (second compound 0.1 µM, first compound 0.316 µM): 97.3%
- viability, T/C (second compound 0.1 µM, first compound 1 µM): 86%
- viability, T/C (second compound 0.1 µM, first compound 3.16 µM): 68.9%
- viability, T/C (second compound 0.1 µM, first compound 10 µM): 34.4%
- viability, T/C (second compound 0.316 µM, first compound 0.0316 µM): 105%
- viability, T/C (second compound 0.316 µM, first compound 0.1 µM): 115%
- viability, T/C (second compound 0.316 µM, first compound 0.316 µM): 93.7%
- viability, T/C (second compound 0.316 µM, first compound 1 µM): 99.6%
- viability, T/C (second compound 0.316 µM, first compound 3.16 µM): 72%
- viability, T/C (second compound 0.316 µM, first compound 10 µM): 42.5%
- viability, T/C (second compound 1 µM, first compound 0.0316 µM): 110%
- viability, T/C (second compound 1 µM, first compound 0.1 µM): 105%
- viability, T/C (second compound 1 µM, first compound 0.316 µM): 107%
- viability, T/C (second compound 1 µM, first compound 1 µM): 94.8%
- viability, T/C (second compound 1 µM, first compound 3.16 µM): 83.1%
- viability, T/C (second compound 1 µM, first compound 10 µM): 41.5%
- viability, T/C (second compound 3.16 µM, first compound 0.0316 µM): 110%
- viability, T/C (second compound 3.16 µM, first compound 0.1 µM): 120%
- viability, T/C (second compound 3.16 µM, first compound 0.316 µM): 97.6%
- viability, T/C (second compound 3.16 µM, first compound 1 µM): 101%
- viability, T/C (second compound 3.16 µM, first compound 3.16 µM): 80.7%
- viability, T/C (second compound 3.16 µM, first compound 10 µM): 44.8%
- viability, T/C (second compound 10 µM, first compound 0.0316 µM): 125%
- viability, T/C (second compound 10 µM, first compound 0.1 µM): 112%
- viability, T/C (second compound 10 µM, first compound 0.316 µM): 101%
- viability, T/C (second compound 10 µM, first compound 1 µM): 88.5%
- viability, T/C (second compound 10 µM, first compound 3.16 µM): 79.6%
- viability, T/C (second compound 10 µM, first compound 10 µM): 33.7%
